Measurements reported in patent publication US20020086278A1, “CHROMOGENIC MEDIA CONTAINING BLOOD OR HEMIN” (priority 1999, published 2002).
Like-named read-outs stand apart in the source and are kept apart here.

Assays:
Type in all cases: cell-based
55 strains = experiment: Example 3: color, hemolytic activity and growth over all 55 strains; settings: some strains
Description: Steers, E. et al., Antibiot.

[1] = tested on: Aeromonas hydrophilia (aehy); experiment: Example 3: colony color on chromogenic TSA II with 5% sheep blood (chromogen in medium); settings: CO2, 21 h
Candida albicans (caal) = experiment: as above; settings: caal 10231, 24 h
[2] = tested on: Branhamella catarrhalis (brca); experiment: as above; settings: CO2, 21 h
cakr 34135 = experiment: as above; settings: CO2, 21 h
Salmonella spp. (sasp) = settings: CO2, 21 h
milu 9341 = experiment: Example 3: colony color on chromogenic TSA II with 5% sheep blood (chromogen in medium); settings: CO2, 21 h
[3] = tested on: Entercoccus faecalis (enfa); experiment: as above
S pyogenes (stpy) = experiment: as above; settings: 21 h
[4] = tested on: Staphylococcus Coag Neg (step); experiment: as above; settings: 21 h
S. milleri (stmi) = experiment: as above; settings: stmi 6249, 21 h
E. faecium (enfu) = experiment: as above; settings: enfu 49032, 21 h
[5] = tested on: Serratia marcescens (sema); experiment: as above; settings: sema 13880; CO2; 21 h
[6] = tested on: E. coli (non-O157) (esco)
[7] = tested on: Staphylococcus aureus (stau); experiment: Example 3: colony color on chromogenic TSA II with 5% sheep blood (chromogen in medium)
S. pneumoniae (stpn) = experiment: as above
[8] = tested on: Klebsiella pneumoniae (klpn); experiment: as above
[9] = tested on: Pseudomonas aeruginosa (psae); experiment: as above; settings: CO2, 21 h
[10] = tested on: Streptococcus agalactiae (stag); experiment: as above
[11] = tested on: Citrobacter freundii (cifr); experiment: as above; settings: CO2, 21 h

## CC(C)S[C@@H]1O[C@H](CO)[C@H](O)[C@H](O)[C@H]1O [IPTG, Isopropyl-β-D-thiogalactopyranoside]
55 strains
  Effect on reactivity with X-gal: reduce the reactivity

## NC1CCCCC1.O=C(O)[C@H]1O[C@@H](Oc2c[nH]c3cc(Cl)ccc23)[C@H](O)[C@@H](O)[C@@H]1O [Sal-Glucuro, 6-Cl-3-indolyl-β-D-glucuronide (CHA salt)]
[1]; aehy 7965
  Colony Color: 0
[1]; aehy 7966
  Colony Color: 0
[1]; aehy 49847
  Colony Color: 0
Candida albicans (caal); CO2
  Colony Color: 0
Candida albicans (caal); air
  Colony Color: 0
[2]; brca 25238
  Colony Color: 0
[2]; brca 25240
  Colony Color: 0
Cakr 34135
  Colony Color: 0
Salmonella spp. (sasp); saty 19430
  Colony Color: 0
Salmonella spp. (sasp); satym 14028
  Colony Color: 0
Milu 9341
  Colony Color: 0
[3]; enfa 597, CO2, 21 h
  Colony Color: 0
[3]; enfa 597, air, 21 h
  Colony Color: 0
[3]; enfa 10741, CO2, 21 h
  Colony Color: 0
[3]; enfa 10741, air, 21 h
  Colony Color: 0
[3]; enfa 12953, CO2, 21 h
  Colony Color: 0
[3]; enfa 12953, air, 21 h
  Colony Color: 0
[3]; enfa 14506, CO2, 21 h
  Colony Color: 0
[3]; enfa 14506, air, 21 h
  Colony Color: 0
[3]; enfa 29212, CO2, 21 h
  Colony Color: 0
[3]; enfa 29212, CO2, 24 h
  Colony Color: 0
[3]; enfa 29212, air, 21 h
  Colony Color: 0
[3]; enfa 29212, air, 24 h
  Colony Color: 0
S pyogenes (stpy); stpy 1027, CO2
  Colony Color: 0
S pyogenes (stpy); stpy 1028, CO2
  Colony Color: 0
S pyogenes (stpy); stpy 1029, CO2
  Colony Color: 0
S pyogenes (stpy); stpy 1030, CO2
  Colony Color: 0
S pyogenes (stpy); stpy 19615, CO2
  Colony Color: 0
S pyogenes (stpy); stpy 19615, air
  Colony Color: 0
S pyogenes (stpy); stpy 49117, CO2
  Colony Color: 0
S pyogenes (stpy); stpy 49117, air
  Colony Color: 0
S pyogenes (stpy); stpy 51339, CO2
  Colony Color: 0
S pyogenes (stpy); stpy 51339, air
  Colony Color: 0
[4]; step 12228, CO2
  Colony Color: 0
[4]; step 12228, air
  Colony Color: 0
[4]; step cdc1, CO2
  Colony Color: 0
[4]; step cdc1, air
  Colony Color: 0
[4]; step cdc2, CO2
  Colony Color: 0
[4]; step cdc2, air
  Colony Color: 0
[4]; step cdc3, CO2
  Colony Color: 0
[4]; step cdc3, air
  Colony Color: 0
[4]; step cdc4, CO2
  Colony Color: 0
[4]; step cdc4, air
  Colony Color: 0
S. milleri (stmi); CO2
  Colony Color: 0
S. milleri (stmi); air
  Colony Color: 0
E. faecium (enfu); CO2
  Colony Color: 0
E. faecium (enfu); air
  Colony Color: 0
[5]
  Colony Color: 0
[6]; esco 11775, CO2, 21 h
  Colony Color: 0
[6]; esco 25922, CO2, 24 h
  Colony Color: 0
[6]; esco 25922, air, 24 h
  Colony Color: 0
[6]; esco 33605, CO2, 21 h
  Colony Color: 0
[7]; stau 1006, CO2, 21 h
  Colony Color: 0
[7]; stau 1007, CO2, 21 h
  Colony Color: 0
[7]; stau 1008, CO2, 21 h
  Colony Color: 0
[7]; stau 1009, CO2, 21 h
  Colony Color: 0
[7]; stau 25923, CO2, 24 h
  Colony Color: 0
[7]; stau 25923, air, 24 h
  Colony Color: 0
S. pneumoniae (stpn); stpn 1259, CO2, 21 h
  Colony Color: 0
S. pneumoniae (stpn); stpn 1260, CO2, 21 h
  Colony Color: 0
S. pneumoniae (stpn); stpn 1628, CO2, 21 h
  Colony Color: 0
S. pneumoniae (stpn); stpn 6303, CO2, 24 h
  Colony Color: 0
S. pneumoniae (stpn); stpn 6303, air, 24 h
  Colony Color: 0
S. pneumoniae (stpn); stpn 6305, CO2, 24 h
  Colony Color: 0
S. pneumoniae (stpn); stpn 6305, air, 24 h
  Colony Color: 0
[8]; klpn 13883, CO2, 21 h
  Colony Color: 0
[8]; klpn 33495, CO2, 24 h
  Colony Color: 0
[8]; klpn 33495, air, 24 h
  Colony Color: 0
[8]; klpn 33606, CO2, 21 h
  Colony Color: 0
[9]; psae 9027
  Colony Color: 0
[9]; psae 15442
  Colony Color: 0
[9]; psae 33607
  Colony Color: 0
[10]; stag 4768, CO2, 21 h
  Colony Color: 0
[10]; stag 4768, air, 21 h
  Colony Color: 0
[10]; stag 12386, CO2, 21 h
  Colony Color: 0
[10]; stag 12386, CO2, 24 h
  Colony Color: gp
[10]; stag 12386, air, 24 h
  Colony Color: gp
[11]; cifr 8454
  Colony Color: 0
[11]; cifr 33128
  Colony Color: 0
